Assay [1] deals with cultured human mast cells (CHMC). In words: CHMC low cell density IgE activation: tryptase assay. It counts as cell-based. To be noted: low cell density CHMC, IgE activation, tryptase readout. The procedure, abridged:
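Low-density CHMC, 1000-1500 cells/well in MT; 1 hr 37 °C; anti-IgE challenge 30 min 37 °C; supernatant tryptase via fluorogenic substrate, 30 min RT.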

The test system is the same in assay [2]. In words: CHMC low cell density ionomycin activation: tryptase assay. The settings on record: low cell density CHMC, tryptase readout, 3 pt, read-out: LD Tryptase, CHMC, Iono, 3 pt. It counts as cell-based.
Setting [3] is: Homo sapiens, Mast cell, 3 pt, read-out: LD Tryptase, CHMC, IgE, 3 pt.
Setting [4] is: Homo sapiens, Mast cell, 8 pt, read-out: LD Tryptase, CHMC, IgE, 8 pt.
[5] abbreviates: 8 pt, read-out: LD Tryptase, CHMC, IgE, 8 pt.
Where [6] appears, read: 3 pt, read-out: LD Tryptase, CHMC, IgE, 3 pt.

Counter-ions that a name gives are not always drawn.

IC50 data for 23 compounds are collected here from US20220073536A1 (Rigel Pharmaceuticals, Inc., priority 2003, published 2022).

Consider `CC1(C)Oc2ccc(Nc3nc(Nc4cccc(-c5cocn5)c4)ncc3F)cc2NC1=O` [Compound 1036, N4-(2,2-Dimethyl-3-oxo-4H-benz[1,4]oxazin-6-yl)-5-fluoro-N2-[3-(oxazol-4-yl)phenyl]-2,4-pyrimidinediamine], for which the IC50 in assay [1] (setting [3]) is below 10 µM; in assay [1] (setting [4]) it was below 10 µM; in assay [2] (Homo sapiens, Mast cell) it was below 10 µM.

Turning to `CNC(=O)COc1c(C)cc(Nc2ncc(F)c(Nc3ccc4c(n3)NC(=O)C(C)(C)O4)n2)cc1Cl` [Compound 1037, N2-[3-Chloro-5-methyl-4-(N-methylamino)carbonylmethyleneoxyphenyl]-N4-(2,2-dimethyl-3-oxo-4H-5-pyrid[1,4]oxazin-6-yl)-5-fluoro-2,4-pyrimidinediamine], the IC50 in assay [1] (setting [5]) was below 10 µM; in assay [2], above 10 µM.

Take `CCOC(=O)COc1c(C)cc(Nc2ncc(F)c(Nc3ccc4c(n3)NC(=O)C(C)(C)O4)n2)cc1C` [Compound 1038, N2-(3,5-Dimethyl-4-ethoxycarbonylmethyleneoxyphenyl)-N4-(2,2-dimethyl-3-oxo-4H-5-pyrid[1,4]oxazin-6-yl)-5-fluoro-2,4-pyrimidinediamine]: the IC50 in assay [1] (setting [5]) is below 10 µM; in assay [2], above 10 µM.

Turning to `Cc1cc(Nc2ncc(F)c(Nc3ccc4c(c3)NC(=O)C(C)(C)O4)n2)cc(Cl)c1OC(C)C` [Compound 1039, N2-(3-Chloro-4-isopropoxy-5-methylphenyl)-N4-(2,2-dimethyl-3-oxo-4H-benz[1,4]oxazin-6-yl)-5-fluoro-2,4-pyrimidinediamine], the IC50 in assay [1] (setting [4]) is below 10 µM; in assay [2] (Homo sapiens, Mast cell), below 10 µM.

Turning to `Cc1cc(Nc2ncc(F)c(Nc3ccc4c(n3)NC(=O)C(C)(C)O4)n2)cc(Cl)c1OC(C)C` [Compound 1040, N2-(3-Chloro-4-isopropoxy-5-methylphenyl)-N4-(2,2-dimethyl-3-oxo-4H-5-pyrid[1,4]oxazin-6-yl)-5-fluoro-2,4-pyrimidinediamine], the IC50 in assay [1] (setting [5]) was above 10 µM; in assay [2], below 10 µM.

As to `CNC(=O)COc1c(C)cc(Nc2ncc(F)c(Nc3ccc4c(n3)NC(=O)C(C)(C)O4)n2)cc1C` [Compound 1041, N2-[3,5-Dimethyl-4-(N-methylamino)carbonylmethyleneoxyphenyl]-N4-(2,2-dimethyl-3-oxo-4H-5-pyrid[1,4]oxazin-6-yl)-5-fluoro-2,4-pyrimidinediamine], the IC50 in assay [1] (setting [6]), in assay [1] (setting [5]) and in assay [2] was below 10 µM in each case.

As to `CCOC(=O)COc1c(C)cc(Nc2ncc(F)c(Nc3ccc4c(n3)NC(=O)C(C)(C)O4)n2)cc1Cl` [Compound 1042, N2-(3-Chloro-4-ethoxycarbonylmethyleneoxy-5-methylphenyl)-N4-(2,2-dimethyl-3-oxo-4H-5-pyrid[1,4]oxazin-6-yl)-5-fluoro-2,4-pyrimidinediamine], the IC50 in assay [1] (setting [6]) and in assay [2] was above 10 µM each time.

On to `Cc1cc(Nc2ncc(F)c(Nc3ccc4c(n3)NC(=O)C(C)(C)O4)n2)cc(Cl)c1OCC(=O)NCC(O)CO` (stereo not shown) [Compound 1043, N2-[3-Chloro-4-[N-(2,3-dihydroxypropyl)amino]carbonylmethyleneoxy-5-methylphenyl]-N4-(2,2-dimethyl-3-oxo-4H-5-pyrid[1,4]oxazin-6-yl)-5-fluoro-2,4-pyrimidinediamine], for which the values for the IC50 in assay [1] (setting [6]), in assay [1] (setting [5]) and in assay [2] were below 10 µM, below 10 µM and above 10 µM, respectively.

On to `Cc1cc(Nc2ncc(F)c(Nc3ccc4c(n3)NC(=O)C(C)(C)O4)n2)cc(C)c1OCC(=O)NC1CCCC1` [Compound 1044, N2-[3,5-Dimethyl-4-(N-cyclopentylamino)carbonylmethyleneoxyphenyl]-N4-(2,2-dimethyl-3-oxo-4H-5-pyrid[1,4]oxazin-6-yl)-5-fluoro-2,4-pyrimidinediamine], for which the IC50 in assay [1] (setting [6]), in assay [1] (setting [5]) and in assay [2] was above 10 µM each time.

Take `CNC(=O)COc1cccc(Nc2ncc(F)c(Nc3ccc4c(c3)NC(=O)C(F)(F)O4)n2)c1` [Compound 1045, N4-(2,2-Difluoro-3-oxo-4H-benz[1,4]oxazin-6-yl)-5-fluoro-N2-[3-(N-methylamino)carbonylmethyleneoxyphenyl]-2,4-pyrimidinediamine Hydrogen Chloride Salt]: the IC50 in assay [1] (setting [6]) was below 10 µM; in assay [1] (setting [5]) it was below 10 µM; in assay [2], above 10 µM.

Turning to `CNC(=O)COc1cccc(Nc2ncc(F)c(Nc3ccc4c(c3)NC(=O)C(F)(F)O4)n2)c1` [Compound 1046, N4-(2,2-Difluoro-3-oxo-4H-benz[1,4]oxazin-6-yl)-5-fluoro-N2-[3-(N-methylamino)carbonylmethyleneoxyphenyl]-2,4-pyrimidinediamine Methanesulfonic Acid Salt], the IC50 in assay [1] (setting [6]) is below 10 µM; in assay [1] (setting [5]), below 10 µM; in assay [2], above 10 µM.

`CC1(C)Oc2ccc(Nc3nc(Nc4ccc5cn[nH]c5c4)ncc3F)cc2NC1=O` [Compound 1047, N4-(2,2-Dimethyl-3-oxo-4H-benz[1,4]oxazin-6-yl)-5-fluoro-N2-(indazol-6-yl)-2,4-pyrimidinediamine Methanesulfonic Acid Salt]: the IC50 in assay [1] (setting [3]) is above 10 µM; in assay [1] (setting [4]) it was below 10 µM; in assay [2] (Homo sapiens, Mast cell), above 10 µM.

For `CCn1ncc2ccc(Nc3ncc(F)c(Nc4ccc5c(n4)NC(=O)C(C)(C)O5)n3)cc21` [Compound 1049, N4-(2,2-Dimethyl-3-oxo-4H-5-pyrid[1,4]oxazin-6-yl)-N2-(1-ethylindazol-6-yl)-5-fluoro-2,4-pyrimidinediamine], the IC50 in assay [1] (setting [6]) is below 10 µM; in assay [1] (setting [5]) it was below 10 µM; in assay [2] it was above 10 µM.

Turning to `CC(C)n1ncc2ccc(Nc3ncc(F)c(Nc4ccc5c(n4)NC(=O)C(C)(C)O5)n3)cc21` [Compound 1050, N4-(2,2-Dimethyl-3-oxo-4H-5-pyrid[1,4]oxazin-6-yl)-N2-(1-isopropylindazol-6-yl)-5-fluoro-2,4-pyrimidinediamine], the IC50 is below 10 µM in assay [1] (setting [6]), below 10 µM in assay [1] (setting [5]) and above 10 µM in assay [2].

For the compound `CC1(C)CNc2nc(Nc3nc(Cl)ncc3F)ccc2O1` [Compound 1051, 2-Chloro-N4-(3,4-dihydro-2,2-dimethyl-4H-5-pyrid[1,4]oxazin-6-yl)-5-fluoro-4-pyrimidineamine], the IC50 in assay [1] (setting [6]) and in assay [2] was above 10 µM each time.

As for `Cn1ncc2ccc(Nc3ncc(F)c(Nc4ccc5c(n4)NCC(C)(C)O5)n3)cc21` [Compound 1052, N4-(3,4-Dihydro-2,2-dimethyl-4H-5-pyrid[1,4]oxazin-6-yl)-5-fluoro-N2-(1-methylindazol-6-yl)-2,4-pyrimidinediamine], the IC50 in assay [1] (setting [6]), in assay [1] (setting [5]) and in assay [2] was below 10 µM throughout.

With `CNC(=O)COc1cccc(Nc2ncc(F)c(Nc3ccc4c(n3)NCC(C)(C)O4)n2)c1` [Compound 1053, N4-(3,4-Dihydro-2,2-dimethyl-4H-5-pyrid[1,4]oxazin-6-yl)-5-fluoro-N2-[3-(N-methylamino)carbonylmethyleneoxyphenyl]-2,4-pyrimidinediamine], the IC50 in assay [1] (setting [6]) is below 10 µM; in assay [1] (setting [5]), below 10 µM; in assay [2] it was above 10 µM.

With `CNC(=O)c1ccc(Nc2ncc(F)c(Nc3ccc4c(n3)NC(=O)C(C)(C)O4)n2)cc1Cl` [Compound 1054, N2-[3-Chloro-4-(N-methylamino)carbonylphenyl]-N4-(2,2-dimethyl-3-oxo-4H-5-pyrid[1,4]oxazin-6-yl)-5-fluoro-2,4-pyrimidinediamine], the IC50 in assay [1] (setting [6]) was below 10 µM; in assay [1] (setting [5]) it was below 10 µM; in assay [2], above 10 µM.

With `CC1(C)Oc2ccc(Nc3nc(Nc4ccc5c(c4)OCCO5)ncc3F)nc2NC1=O` [Compound 1055, N4-(2,2-Dimethyl-3-oxo-4H-5-pyrid[1,4]oxazin-6-yl)-N2-(3,4-ethylenedioxyphenyl)-5-fluoro-2,4-pyrimidinediamine], the IC50 in assay [1] (setting [6]) is below 10 µM; in assay [1] (setting [5]), below 10 µM; in assay [2], above 10 µM.

Take `Cn1ncc2ccc(Nc3ncc(F)c(Nc4ccc5c(n4)NC(=O)C(C)(C)O5)n3)cc21` [Compound 1056, N4-(2,2-Dimethyl-3-oxo-4H-5-pyrid[1,4]oxazin-6-yl)-5-fluoro-N2-[1-methylindazol-6-yl]-2,4-pyrimidinediamine Hydrogen Chloride Salt]: the IC50 in assay [1] (setting [6]) was below 10 µM; in assay [1] (setting [5]), below 10 µM; in assay [2], above 10 µM.

In the case of `Cn1ncc2ccc(Nc3ncc(F)c(Nc4ccc5c(n4)NC(=O)C(C)(C)O5)n3)cc21` [Compound 1057, N4-(2,2-Dimethyl-3-oxo-4H-5-pyrid[1,4]oxazin-6-yl)-5-fluoro-N2-[1-methylindazol-6-yl]-2,4-pyrimidinediamine p-Toluenesulfonic Acid Salt], the IC50 in assay [1] (setting [6]) was below 10 µM; in assay [1] (setting [5]), below 10 µM; in assay [2], above 10 µM.

On to `CC(=O)N1CCN(c2cccc(Nc3ncc(F)c(NC4CCC4)n3)c2)CC1` [Compound 1085, N2-[3-(4-Acetylpiperazino)phenyl]-N4-cyclobutyl-5-fluoro-2,4-pyrimidinediamine], for which the IC50 in assay [1] (setting [3]) is below 10 µM; in assay [2] (Homo sapiens, Mast cell), above 10 µM.

As to `CC(C)(C)c1cc(Nc2ncc(F)c(Nc3ccc4c(n3)NC(=O)CO4)n2)n[nH]1` [Compound 1086, N2-(5-tert-Butylpyrazol-3-yl)-5-fluoro-N4-(3-oxo-2H,4H-5-pyrid[1,4]oxazin-6-yl)-2,4-pyrimidinediamine], the IC50 was below 10 µM in assay [1] (setting [6]) and above 10 µM in assay [2].
